In US20250340569A1, “INHIBITORS OF KIF18A AND USES THEREOF” (Insilico Medicine IP Limited, priority 2023, published 2025):
pIC50: −log10 of the molar value.

Key:
[1] = test system: OVCAR-3; assay: OVCAR3 CTG assay; type: cell-based; conditions: Homo sapiens, OVCAR-3, 144 h; CellTiter-Glo, 6 days incubation
Text: Example B2: OVCAR3 CTG Assay
• a) Preparation of complete medium: Added FBS and appropriate additives according to the information sheet provided by the vendor. Mix gently. • b) Checked the cell name and complete medium and passage number marked on the flask. For adherent cell lines, refer to c to k. For suspension cell lines, refer to g to k. • c) Removed and discarded culture medium using a vacuum pump. • d) Briefly rinsed the cell layer with 0.25% (w/v) Trypsin-0.038% (w/v) EDTA solution to remove all traces of serum that contains trypsin inhibitor. • e) Added 3.0 ml of Trypsin-EDTA solution to flask and observed cells under an inverted microscope until cell layer is dispersed. • f) Added 9.0 ml of complete growth medium and aspirated cells by gently pipetting. • g) Transfered the cell suspension to a centrifuge tube and centrifuged at 1000 rpm for 4 minutes. • h) Discarded the supernatant using a vacuum pump. • i) Added appropriate volume of complete medium. Suspended the cell pellet by gently pipetting. • j) Counted the cell numbers with Vi-cell XR and adjusted cells to appropriate density. • k) Added 190 μL of cell suspension to 96-well opaque-walled clear bottom plates according to the planned plate layout and placed the plates in the CO2 incubator overnight.
2) Compound Stock Preparation:
• a) Plate preparation of testing articles:
The compounds were dissolved in DMSO to prepare 10 mM stock solution. The start working concentration (2 mM) was prepared with DMSO.
b) Staurosporine Plate Preparation:
0.4 mM Staurosporine was prepared in DMSO at working concentration.
The 20× compound containing medium was prepared according to the plate map. 10 μL of 20× compound containing medium was added into each well of the assay plates. Centrifuged at 1000 rpm for 1 minute. The total dilution was 200-fold.
3) Cells were Incubated with the Compounds for 6 Days at 5% CO2, 37° C.
Assay Measurement for CTG Assay
1) Preparation of Reagents
• a) Thawed the CellTiter-Glo buffer and equilibrated to room temperature prior to use. • b) Equilibrated the lyophilized CellTiter-Glo substrate to room temperature prior to use. • c) Transfered the appropriate volume of CellTiter-Glo buffer into the amber bottle containing CellTiter-Glo substrate to reconstitute the lyophilized enzyme/substrate mixture. This formed the CellTiter-Glo reagent. • d) Mixed by gently vortexing, swirling or by inverting the contents to obtain a homogeneous solution. The CellTiter-Glo substrate went into solution easily in less than one minute.
• a) Observed the cell morphology under an inverted microscope after corresponding treatment. • b) Equilibrated the plate and its contents to room temperature for approximately 30 minutes. • c) Added 100 μL of CellTiter-Glo reagent to the assay plate by Multidrop Combi instrument. • d) Mixed contents for 10 minutes on an orbital shaker to induce cell lysis. • e) Allowed the plate to incubate at room temperature for 10 minutes to stabilize luminescent signal. • f) Pasted the clear bottom with white back seal and record luminescence with Envision. The settings should be: Luminescence, measurement time 0.1 s.

[2] = biological target: T1, Kif18A (Homo sapiens, UniProt Q8NI77); assay: KIF18A assay (ADP Glo); conditions: biochemical assay, ADP Glo luminescence
T1 sequence (Q8NI77 1-898): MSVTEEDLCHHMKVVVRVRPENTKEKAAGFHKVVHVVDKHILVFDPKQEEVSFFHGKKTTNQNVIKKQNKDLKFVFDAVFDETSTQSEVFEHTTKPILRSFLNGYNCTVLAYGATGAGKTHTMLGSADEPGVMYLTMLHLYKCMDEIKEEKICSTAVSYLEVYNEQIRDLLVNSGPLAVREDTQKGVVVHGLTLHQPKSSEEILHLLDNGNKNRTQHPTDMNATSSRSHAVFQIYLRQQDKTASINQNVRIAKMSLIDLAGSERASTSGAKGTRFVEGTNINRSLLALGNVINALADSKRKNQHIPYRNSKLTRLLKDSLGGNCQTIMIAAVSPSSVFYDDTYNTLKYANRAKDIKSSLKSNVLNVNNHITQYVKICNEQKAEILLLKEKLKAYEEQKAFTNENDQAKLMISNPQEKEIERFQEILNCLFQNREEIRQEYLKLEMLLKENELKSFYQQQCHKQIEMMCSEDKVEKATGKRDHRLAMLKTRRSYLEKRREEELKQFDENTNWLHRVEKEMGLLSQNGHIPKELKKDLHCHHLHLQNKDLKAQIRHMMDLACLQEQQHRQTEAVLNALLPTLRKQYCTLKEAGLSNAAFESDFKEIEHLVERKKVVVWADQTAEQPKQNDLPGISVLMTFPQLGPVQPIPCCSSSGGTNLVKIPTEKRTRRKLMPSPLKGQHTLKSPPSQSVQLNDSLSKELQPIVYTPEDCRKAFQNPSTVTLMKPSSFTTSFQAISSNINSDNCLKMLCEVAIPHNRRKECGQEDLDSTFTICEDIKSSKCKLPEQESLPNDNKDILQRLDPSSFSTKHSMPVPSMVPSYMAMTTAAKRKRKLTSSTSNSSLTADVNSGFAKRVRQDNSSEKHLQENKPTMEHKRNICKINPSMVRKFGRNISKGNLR
Experimental: The KIF18A assay was performed as follows:
1.1. Prepared 1× Kinase Buffer
• a) Added 40 μL test compound to 384-well dilution plate • b) Diluted compound 1:3 in succession in DMSO for each column for 10 pts • c) Transferred 0.1 μL diluted compound solution to 384 assay plate using Echo, each column containing 2 replicates • d) Added 5 μL enzyme working solution to 384-well assay plate, centrifuge 1000 RPM for 1 min e) Incubated at 25° C. for 15 min • f) Added 5 μL ATP working solution to initiate reaction • g) Incubated at 25° C. for 60 min • h) Added 10 μL ADP Glo reagent, centrifuge 1000 RPM for 1 min • i) Incubated at 25° C. for 60 min • j) Added 20 μL kinase detection reagent, centrifuge 1000 RPM for 1 min • k) Incubated at 25° C. for 60 min • l) Read Luminescence Signal on Envision 2104 plate reader.
1.3. Data Analysis—Calculated IC50 and Plot Dose-Response Curve of Compounds:
Calculated IC50 by fitting % Inhibition values and log of compound concentrations to nonlinear regression (dose response−variable slope) with GraphPad 6.0.
[formula] • X: log of inhibitor concentration; Y: % Inhibition

Row | pIC50 [1] | pIC50 [2] | SMILES
1 | 7.00 to 8.00 | 7.00 to 8.00 | Cc1cc2nc(n1)NCCOCCC1(C)CCN(CC1)c1cc(NS(=O)(=O)CCO)ccc1C(=O)N2 [EX23]
2 | > 8.00 | 7.00 to 8.00 | Cc1cc2nc(n1)NC[C@@H](C)COCC1(C(F)(F)F)CCN(CC1)c1cc(NS(=O)(=O)CCO)ccc1C(=O)N2 [EX36-B]
3 | 7.00 to 8.00 | 7.00 to 8.00 | COC1CNc2nc(C)cc(n2)NC(=O)c2ccc(NS(=O)(=O)CCO)cc2N2CCC(C)(CC2)COC1 (stereo not shown) [EX31]
4 | 7.00 to 8.00 | 7.00 to 8.00 | [2H]C([2H])([2H])N1CCCOCC2(C(F)(F)F)CCN(CC2)c2cc(NS(=O)(=O)CCO)ccc2C(=O)Nc2cccc1n2 [EX48]
5 | 6.00 to 7.00 | 7.00 to 8.00 | CC12CCN(CC1)c1cc(NS(=O)(=O)CCO)ccc1C(=O)Nc1ccc(=O)n(n1)CCCCOC2 [EX13]
6 | > 8.00 | > 8.00 | C[C@@H]1CNc2cccc(n2)NC(=O)c2ccc(NS(=O)(=O)CCO)cc2N2CCC(C(F)(F)F)(CC2)COC1 [EX56-B]
7 | 7.00 to 8.00 | 7.00 to 8.00 | [2H]C([2H])([2H])N1CCCOCC2(C(F)(F)F)CCN(CC2)c2cc(NS(=O)(=O)CCO)ccc2C(=O)Nc2ccnc1c2 [EX58]
8 | 6.00 to 7.00 | > 8.00 | Cc1cc2nc(n1)N(C)CCCOCC1(C)CCN(CC1)c1cc(NS(=O)(=O)CCO)ccc1C(=O)N2 [EX06]
9 | 7.00 to 8.00 | > 8.00 | C[C@H]1CNc2cccc(n2)NC(=O)c2ccc(NS(=O)(=O)CCO)cc2N2CCC(C(F)(F)F)(CC2)COC1 [EX56-A]
10 | 7.00 to 8.00 | 7.00 to 8.00 | CN1CCCOCC2(C(F)(F)F)CCN(CC2)c2cc(NS(=O)(=O)CCO)ncc2C(=O)Nc2cccc1n2 [EX82]
11 | > 8.00 | 7.00 to 8.00 | O=C1Nc2cccc(n2)N2CCO[C@@H](COCC3(C(F)(F)F)CCN(CC3)c3cc(NS(=O)(=O)CCO)ccc31)C2 [EX81-A]
12 | 7.00 to 8.00 | 7.00 to 8.00 | Cc1cc2nc(n1)NCCC(C)OCC1(C)CCN(CC1)c1cc(NS(=O)(=O)CCO)ccc1C(=O)N2 (stereo not shown) [EX38]
13 | 6.00 to 7.00 | 7.00 to 8.00 | O=C1Nc2cccc(n2)OCCCOCC2CCN(CC2)c2cc(NS(=O)(=O)CCO)ccc21 [EX11]
14 | 7.00 to 8.00 | 7.00 to 8.00 | Cc1cc2nc(n1)N(C)CCOCC1(C)CCN(CC1)c1cc(NS(=O)(=O)CCO)ccc1C(=O)N2 [EX04]
15 | 6.00 to 7.00 | 7.00 to 8.00 | Cc1cc2nc(n1)N(C)C[C@H](C)COCC1(C)CCN(CC1)c1cc(NS(=O)(=O)CCO)ccc1C(=O)N2 [EX33-A]
16 | 7.00 to 8.00 | 7.00 to 8.00 | O=C1Nc2ccc(=O)n(n2)CCCCOCC2(C(F)(F)F)CCN(CC2)c2cc(NS(=O)(=O)CCO)ccc21 [EX50]
17 | 7.00 to 8.00 | 7.00 to 8.00 | Cc1cc2nc(n1)NCC(C)COCC1(C(F)(F)F)CCN(CC1)c1nc(NC(C)(C)CO)ccc1C(=O)N2 (stereo not shown) [EX55]
18 | 5.00 to 6.00 | 7.00 to 8.00 | Cc1cc2nc(n1)N(C)C[C@@H](C)COCC1(C)CCN(CC1)c1cc(NS(=O)(=O)CCO)ccc1C(=O)N2 [EX33-B]
19 | 6.00 to 7.00 | 6.00 to 7.00 | CN1CCCOCC2(C)CCN(CC2)c2cc(NS(=O)(=O)CCO)ccc2C(=O)Nc2cccc(n2)C1=O [EX22]

Row | pIC50 [1] | pIC50 [2] | SMILES
20 | 6.00 to 7.00 | 7.00 to 8.00 | Cc1cc2nc(n1)N(C)CC(C)COCC1(C(F)(F)F)CCN(CC1)c1cc(NS(=O)(=O)CCO)ccc1C(=O)N2 (stereo not shown) [EX35]
21 | 7.00 to 8.00 | 7.00 to 8.00 | Cc1cc2nc(n1)NC[C@H](C)COCC1(C(F)(F)F)CCN(CC1)c1cc(NS(=O)(=O)CCO)ccc1C(=O)N2 [EX36-A]
22 | > 8.00 | > 8.00 | Cc1cc2nc(n1)NCCCOCC1(C(F)(F)F)CCN(CC1)c1cc(NS(=O)(=O)CCO)ccc1C(=O)N2 [EX17]
23 | 7.00 to 8.00 | 7.00 to 8.00 | CC1CNc2cc(ccn2)NC(=O)c2ccc(NS(=O)(=O)CCO)cc2N2CCC(C(F)(F)F)(CC2)COC1 (stereo not shown) [EX57]
24 | 7.00 to 8.00 | 7.00 to 8.00 | Cc1cc2nc(n1)N1CCC(F)(F)[C@@H](CCCC3(C)CCN(CC3)c3cc(NS(=O)(=O)CCO)ccc3C(=O)N2)C1 [EX115-B]
25 | 7.00 to 8.00 | > 8.00 | CN1CCCOCC2(C(F)(F)F)CCN(CC2)c2cc(NS(=O)(=O)CCO)ccc2C(=O)Nc2ccnc1n2 [EX74]
26 | 7.00 to 8.00 | > 8.00 | C[C@@H]1CCCC2(C(F)F)CCN(CC2)c2cc(NS(=O)(=O)CCO)ccc2C(=O)Nc2cccc(n2)NC1 [EX102-A]
27 | > 8.00 | 7.00 to 8.00 | Cc1cc2nc(n1)NCCCOCC1(C)CCN(CC1)c1cc(S(=O)(=O)NC(C)(C)C)ccc1C(=O)N2 [EX25]
28 | 7.00 to 8.00 | > 8.00 | Cc1cc2nc(n1)NCC(F)COCC1(C)CCN(CC1)c1cc(NS(=O)(=O)CCO)ccc1C(=O)N2 (stereo not shown) [EX24]
29 | 6.00 to 7.00 | 7.00 to 8.00 | CNS(=O)(=O)c1ccc2c(c1)N1CCC(C)(CC1)COCCCN(C)c1nc(C)cc(n1)NC2=O [EX16]
30 | 7.00 to 8.00 | 7.00 to 8.00 | Cc1cc2nc(n1)NC(C)CCOCC1(C)CCN(CC1)c1cc(NS(=O)(=O)CCO)ccc1C(=O)N2 (stereo not shown) [EX20]
31 | 7.00 to 8.00 | 7.00 to 8.00 | Cc1cc2nc(n1)NCCCCOCC1(C(F)(F)F)CCN(CC1)c1cc(NS(=O)(=O)CCO)ccc1C(=O)N2 [EX59]
32 | 7.00 to 8.00 | 7.00 to 8.00 | Cc1cc2nc(n1)NCCCOCC1(C)CCN(CC1)c1cc(NS(=O)(=O)CCO)ccc1C(=O)N2 [EX12]
33 | 7.00 to 8.00 | 7.00 to 8.00 | Cc1cc2nc(n1)NCCCOCC1(C)CCN(CC1)c1cc(S(N)(=O)=O)ccc1C(=O)N2 [EX25-A]
34 | 6.00 to 7.00 | 7.00 to 8.00 | Cc1cc2nc(n1)N(C1CC1)CCCOCC1(C(F)(F)F)CCN(CC1)c1cc(NS(=O)(=O)CCO)ccc1C(=O)N2 [EX45]
35 | 7.00 to 8.00 | > 8.00 | CC12CCN(CC1)c1cc(NS(=O)(=O)CCO)ccc1C(=O)Nc1cccc(n1)OCCCOC2 [EX02]
36 | 6.00 to 7.00 | 7.00 to 8.00 | Cc1cc2nc(n1)NCCCCOC1(C)CCN(CC1)c1cc(NS(=O)(=O)CCO)ccc1C(=O)N2 [EX18]
37 | – | 7.00 to 8.00 | Cc1cc2nc(n1)NCC(O)COCC1(C)CCN(CC1)c1cc(NS(=O)(=O)CCO)ccc1C(=O)N2 (stereo not shown) [EX40]
